Reference: ChEMBL document CHEMBL1136198, “Pyrazolo[4,3-d]pyrimidines as new generation of cyclin-dependent kinase inhibitors” (Bioorg Med Chem Lett, 2003)

Experiments:
[1] = target: K-562 cell line (Homo sapiens); conditions: k562
[2] = target: Cyclin-dependent kinase 1/cyclin B (Homo sapiens, UniProt P06493); assay: Inhibitory concentration against Cyclin-dependent kinase 1-cyclin B; format: protein-complex assay
[3] = target: K-562 (Homo sapiens)

SMILES	IC50 [1] [uM dm**-3]	IC50 [2] [µM]	IC50 [3] [µM]
CC(C)n1cnc2c(NCc3cccc(O)c3)ncnc21	> 167	3.1	
CC(C)n1cnc2c(NCc3ccccc3)ncnc21	113	3.6	
CC(C)=CCNc1ncnc2c(C(C)C)n[nH]c12	152		
COc1ccc(CNc2ncnc3c(C(C)C)n[nH]c23)cc1			46
CC(C)c1n[nH]c2c(NCc3ccccc3Br)ncnc12		11	29
CC(C)c1n[nH]c2c(NCc3ccco3)ncnc12	> 167	2.5	
COc1ccc(CNc2ncnc3c2ncn3C(C)C)cc1	> 167	3.8	
CC(C)c1n[nH]c2c(NCc3ccccc3)ncnc12		1.2	66
CCCCCNc1ncnc2c1ncn2C(C)C	144	6.9	
CC(C)c1n[nH]c2c(Nc3cccc(Cl)c3)ncnc12		0.9	18.4
CC(C)n1cnc2c(NCc3ccc(O)cc3)ncnc21	> 167	4	
CC(C)n1cnc2c(NCc3ccccc3Br)ncnc21		23	49
CC(C)c1n[nH]c2c(NCc3cccc(O)c3)ncnc12		1.7	88
CC(C)=CCNc1ncnc2c1ncn2C(C)C	> 167	17	
COc1ccc(CNc2ncnc3c2ncn3C(C)C)cc1O	104	4.5	
CCCCCNc1ncnc2c(C(C)C)n[nH]c12		1.2	61
COc1ccc(CNc2ncnc3c(C(C)C)n[nH]c23)cc1O		1.1	26
CC(C)n1cnc2c(NCc3ccccc3O)ncnc21	125	4.4	
CC(C)c1n[nH]c2c(NCc3ccccc3O)ncnc12			54
CC(C)c1n[nH]c2c(NCc3ccc(O)cc3)ncnc12	112		
CC(C)n1cnc2c(NCc3ccco3)ncnc21	> 167	9.1	
CC(C)n1cnc2c(Nc3cccc(Cl)c3)ncnc21		5.9	54
